“Also recorded” adds a separate entry of the source.
Experiments:
Assay type in all cases: cell-based, human
[1] = test system: CD8 T cells transduced with CAR Construct 1; test: Tcm phenotype skewing of CAR-T cells (CD62L, CCR7, CD27 surface expression); details: flow cytometry day 8
Experimental: (§1) Culturing cells in large-scale for phenotypic and exhaustion marker evaluation. Isolated CD8 T cells were activated in bulk on day 0 using anti-CD3/anti-CD28 beads in T cell media supplemented with IL-2. On day 1, cells were transduced with the CAR Construct and cell density was adjusted to 0.5×10^6/ml and 10^6 cells were seeded into 12-well plates in the presence of vehicle, TWS119, or DCC-2036. On day 4, cells were transferred into 6-well plates and 2 ml of T cell media was added to each well. On day 6 another 2 ml of media was added to each well. On day 8, CAR T cells were analyzed on a flow cytometer for surface expression of phenotypic markers (CD62L, CCR7, and CD27) and exhaustion markers (PD-1 and Tim-3).
To determine the effect of compound treatment on skewing towards a central memory phenotype, isolated CD8 T cells were activated in bulk on day 0 using anti-CD3/anti-CD28 beads in T cell media supplemented with IL-2. On day 1, cells were transduced with the CAR Construct 1 shown in FIG. 2 and cell density was adjusted to 0.5×10^6/ml and 10^6 cells were seeded into 12 well plates in the presence of vehicle (DMSO), TWS119 or DCC-2036 at the same concentrations. On day 4, cells were transferred into 6-well plates and 2 ml of media was added to each well. On day 6 another 2 ml of media was added to each well. On day 8, cells were analyzed on a flow cytometer for cell surface expression of CD27.
The expression of CD27 observed with vehicle treatment was defined as an MFI (mean fluorescence intensity) of 1 and the relative MFI of cells treated with compound was calculated.

CD8 CAR-T cells = test: Exhaustion marker expression (PD-1, Tim-3) on CD8 CAR-T cells
Experimental: as §1
To determine the effect of compound treatment of CAR-T cells on exhaustion marker expression, cells from three different donors were prepared and treated as described in the protocol above. PD-1 and Tim-3 expression was determined using flow cytometry. […] Tim-3 expression was reduced 2-fold with TWS119, and 3.7-fold with DCC-2036 treatment (FIG. 6A).

[2] = test system: CAR-T cells co-cultured with irradiated K562 tumor cells that express CD19; test: In vitro serial killing/re-stimulation assay; details: relative to vehicle
Source text: An informative clinical parameter that can in some contexts be indicative of likelihood of successful adoptive cell therapy in clinical trials is the ability and extent of expansion of the transferred cells in the patient post-treatment and/or persistence and continued function following initial expansion, e.g., in the context of continued exposure to antigen. The ability of engineered T cells to persist and continue expanding over multiple rounds of antigen stimulation can be indicative of such features and/or likelihood of in vivo function or clinical response. An in vitro serial killing/re-stimulation assay, where the T cells treated by each compound were evaluated for various functions, including expansion and ability to kill tumor cells expressing the target antigen in vitro over multiple rounds of exposure to and withdrawal from antigen, was used as a model system. Such assays were carried out on cells treated with or without compounds, to assess the impact of individual compounds on cell function after repeated encounter with antigen, and cell expansion or persistence in such contexts.
CD8 T cells were activated, transduced, and expanded in the presence of DMSO, TWS119, or DCC-2036. At the end of the expansion, the CAR-T cells were cryopreserved. The serial re-stimulation assay was performed by thawing the CAR-T cells and co-culturing with irradiated K562 tumor cells that express CD19, the antigen recognized by the CAR. Prior to starting each round of killing, cell numbers were adjusted so that CAR-T cell numbers were substantially the same from the cultures generated with DMSO, TWS119, and DCC-2036 treatment respectively. An equal number of irradiated CD19-expressing K562 target cells were added to the different CAR-T cultures.

viable CD4+ population = test: T cell compound screen: CCR7+CD62L+ cells in the viable CD4+ population (flow cytometry); details: 10 μM, about 6 days, anti-CD3/anti-CD28 beads; hit = Z-score > +2 for percent or absolute number CCR7+CD62L+ in CD4+
Source text: In Vitro T Cell Culture. Fresh leukopaks (AllCells, Alameda, CA) were obtained from healthy donors, from which T cells were negatively selected using the EasySep Human T cell Enrichment Kit (Stem Cell Technologies, Vancouver, Canada). The freshly isolated T cells were aliquoted and cryopreserved. On the day the screens were initiated, T cells were thawed and washed into X-Vivo 15 with 5% human AB serum, IL-2, pen/strep, and additional supplements. Cells were dispensed into flat-bottom 384-well plates at 5×10^5 cells/ml with anti-CD3/anti-CD28 beads. Individual compounds were added at a final concentration of 10 μM to each well from column 3 to column 22 of each plate. Positive and negative controls were added to additional wells. Cells were incubated for about 6 days at 37 degrees with 5% CO2.
Flow Cytometry. On Day 6 of culture, cells were stained with a fixable viability marker and fluorophore-conjugated antibodies: CD3, CD4, CD8, CD45RA, CD45RO, CD62L, CCR7, CD27, and CD122 (BD Biosciences, San Jose, CA; and BioLegend, San Diego, CA). Fluorescent absolute counting beads (Spherotech, Lake Forest, IL) were added just prior to acquisition. Data acquisition was performed on a BD Fortessa X-20 (BD Biosciences) and data were analyzed using Treestar software (FlowJo, Ashland, OR) and Spotfire (Tibco, Boston, MA).
These cells are characterized by expression of CCR7 and CD62L. Therefore, cells co-expressing both of these identifying markers were evaluated. Within the viable CD4+ population and viable CD8+ population, the percent of cells co-expressing CCR7 and CD62L was determined. The expression of either CD62L or CCR7 on T cells, as indicative of the desired T cell subsets, have been described as having favorable functional characteristics for CAR-T cell therapy, and potentially other adoptive T cell therapies.
The number of events in each of these gates relative to the number of absolute counting beads in each sample was calculated, defining a measure of the absolute number of naïve, stem cell memory, or central memory T cells within the CD4+ and/or CD8+ populations. A z-Score relative to the screened compound samples within each 384-well plate was calculated for each of these four values: 1) percent CCR7+CD62L+in CD4+, 2) percent CCR7+CD62L+in CD8+, 3) absolute relative number of CCR7+CD62L+in CD4+, and 4) absolute number of CCR7+CD62L+in CD8+(FIGS. 1A and 1i). Z-scores were also calculated for the percent viability of all cells within each sample and the relative absolute number of cells within each sample. A “Z-Score” is a statistical measurement of a score's relationship to the mean in a group of scores. AZ-score of 0 means the score is the same as the mean. AZ-score can also be positive or negative, indicating whether it is above or below the mean and by how many standard deviations.

CNC(=O)c1cc(Oc2ccc(NC(=O)Nc3cc(C(C)(C)C)nn3-c3ccc4ncccc4c3)c(F)c2)ccn1 [DCC-2036, Rebastinib]
increase in the frequency of CAR-T cells expressing both CD62L and CCR7 ([1]; relative to vehicle (DMSO), FIG. 4A): 2.3 fold | increase in the expression of the differentiation marker CD27 (relative MFI) ([1]; relative to vehicle (MFI defined as 1), FIG. 4B): 2.2 fold | expression of T cell exhaustion marker Tim-3 (CD8 CAR-T cells; CD8 T cells at one week post activation, relative to DMSO, FIG. 6A): reduced expression | expression of T cell exhaustion marker PD-1 (CD8 CAR-T cells; CD8 T cells at one week post activation, relative to DMSO, FIG. 6B): reduced expression | reduction of Tim-3 expression (CD8 CAR-T cells; relative to vehicle, three donors, FIG. 6A): 3.7 fold | decrease in PD-1 surface expression (CD8 CAR-T cells; relative to vehicle, three donors, FIG. 6B): 4.5 fold | cell number expansion of CAR-T cells in rounds 3 and 4 of the serial re-stimulation assay ([2]; FIG. 3C): much higher than the vehicle control | total expansion in CAR-T cell number through all 4 rounds of the serial re-stimulation assay ([2]; FIG. 3D): much greater expansion relative to the vehicle control; also recorded: improves cell expansion | CD4 Hit (viable CD4+ population): CD4

From US11932870B2, “Compositions and methods for immune cell modulation in adoptive immunotherapies” (Fate Therapeutics, Inc., priority 2016, dated 2024)
